Legend:
SH-SY5Y-P301L-TAU cells = assay: Phosphorylated-TAU immunoblot in SH-SY5Y-P301L-TAU cells; type: cell-based, human; settings: SH-SY5Y cells expressing mutant P301L-TAU, 24 hours
Method: (§1) FIG. 30, panels A-B: FXR modulation enhances HLH-30 expression in human neuronal SH-SY5Y cell. Panel A) TFEB expression in SH-SY5Y cells was determined by immunoblot against TFEB in protein lysates collected after 24 hours of treatment with FXR agonist GW4064 and DMSO control. Panel B) Phosphorylated-TAU levels in SH-SY5Y-P301L-TAU cells was determined by immunoblot against (Ser202, Thr205) in protein lysates collected after 24 hours of treatment with known FXR antagonist Z-gugglsterone (z-GG), DY268 and DMSO control.

SH-SY5Y cells = assay: Immunoblot of TFEB, cathepsin-D and SHP-1 in SH-SY5Y cells; type: cell-based, human; settings: 24 hours
Method: FIG. 23, panels A-H: FXR modulation enhances HLH-30 expression in human neuronal SH-SY5Y cells. Panel A) Effects of AIC106 on human FXR activity was determined in a mammalian one-hybrid based kit assay by quantifying changes in the luciferase activity of FXR ligand (GW4064, GW) induced treatment. [N=3 independent experiments (mean±SD). ****p<0.0001, by one-way ANOVA with Tukey's multiple comparisons test]. Panel B) Protein expression of TFEB, cathepsin-D (CAT-D) and small heterodimer partner-1 (SHP-1) was determined by immunoblot in neuronal SH-SY5Y cells post-24 hours of treatment with AIC106 and DMSO-control. Panel C) AIC106 enhances autophagic flux in neuronal SH-SY5Y cells. Autophagic flux in DMSO-control and AIC106 treated neuronal cells was determined by quantifying levels of autophagosome specific LC3-II protein both in presence and absence of autophagy inhibitor bafliomycin A1 (Baf A, 10 nM). Panel D) Relative fold change in the band intensity of LC3-II protein, normalized to loading control actin. Values are relative to DMSO-control. [N=3 independent experiments (mean±SD). *p<0.05 and ****p<0.0001, by one-way ANOVA with Tukey's multiple comparisons test]. Panel E) Effects of AIC106 treatment for 72 hours on basal TAU and phosphorylated-TAU in differentiated human neuronal SH-SHY5Y and heterozygous TSC1(+/−) mutant SH-SY5Y neuronal cells were quantitated by immunoblotting following total protein extraction. Relative fold change in the band intensity compared to SH-SY5Y control treatment for (panel F) total TAU and (panel G) phosphorylated-TAU, normalized to loading control GAPDH. [N=3 independent experiments (mean±SD). *p<0.05 and **p<0.01, by one-way ANOVA with Sidak's multiple comparisons test]. Panel H) AIC106 treatment improves viability and health of differentiated SH-SY5Y-TSC1(+/−) neuronal cells. Images were taken post-96 hours after treatment of differentiated neuronal cells with AIC106.
as §1

COc1cccc(Cn2cc(C(=O)Nc3ccc(C)c(S(=O)(=O)N4CCOCC4)c3)c(-c3ccc(C)cc3)n2)c1 [DY268]
phosphorylated-TAU expression (SH-SY5Y-P301L-TAU cells): reduced expression of phosphorylated-TAU

CC(C)c1onc(-c2c(Cl)cccc2Cl)c1COc1ccc(/C=C/c2cccc(C(=O)O)c2)c(Cl)c1 [GW4064, reference compound]
TFEB protein expression (SH-SY5Y cells): reduced TFEB expression

C/C=C1\C(=O)C[C@H]2[C@@H]3CCC4=CC(=O)CC[C@]4(C)[C@H]3CC[C@]12C [Z-guggulsterone]
phosphorylated-TAU expression (SH-SY5Y-P301L-TAU cells): reduced expression of phosphorylated-TAU

From patent US12673039B2, “Methods of inducing autophagy using coumarin derivatives and related compounds” (Buck Institute for Research on Aging, priority 2019, dated 2026)
